In PMC12387680, “Mohangic Acid H and Mohangiol: New p-Aminoacetophenone Derivatives from a Mudflat-Derived Streptomyces sp” (Marine Drugs, 2025):
Where two headings read alike, the source gives them in different places.

Tests used:
[1] = biological target: T1, isocitrate lyase (ICL) (Candida albicans, UniProt Q9P8Q7); assay: biochemical
T1 construct: gene ICL1; recombinant ICL

[2] = test system: T2, S. enterica; assay: microbe, parasite or virus in culture; design: broth microdilution antibacterial MIC, growth inhibition; conditions: Salmonella enterica, 24 h
T2 construct: ATCC 14028
Procedure: (§1) Three species of Gram-positive bacteria (Staphylococcus aureus ATCC 25923, Enterococcus faecalis ATCC 19433, and Enterococcus faecium ATCC 19434) and three species of Gram-negative bacteria (Klebsiella pneumoniae ATCC 10031, Salmonella enterica ATCC 14028, and Escherichia coli ATCC 25922) as human pathogens were selected as test strains and prepared for the antibacterial activity assays. The test bacterial strains were cultured overnight in Mueller–Hinton broth (MHB) at 37 °C for human pathogens and in tryptic soy broth (TSB) at 28 °C for B. thuringiensis. The grown strains were harvested by using a centrifuge and washed twice with sterilized water. Ampicillin and tetracycline were used as positive controls, and dimethyl sulfoxide (DMSO) was used as a negative control. Each compound, including 1 and 2, was dissolved in DMSO and diluted with MHB or TSB to prepare serial two-fold dilutions (from 128 µg/mL to 0.015 µg/mL). For the antibacterial activity assay, 10 µL of suspensions containing 1 × 10^6 colony forming units (CFU)/mL of the test bacteria and 190 µL of MHB or TSB, which included the positive control compounds or test compounds, were added into each well of a 96-well plate (final concentration of test bacteria was 5 × 10^4 CFU/mL). Then, the plate was incubated at 37 °C or 28 °C for 24 h. […] The biological activities of mohangic acid H (1) and mohangiol (2) were evaluated in multiple ways. 1 and 2 were evaluated for inhibitory activities against pathogenic bacteria (Staphylococcus aureus ATCC 25923, Enterococcus faecalis ATCC 19433, Enterococcus faecium ATCC 19434, Salmonella enterica ATCC 14028, Escherichia coli ATCC 25922, Klebsiella pneumoniae ATCC 10031) and fungi (Candida albicans ATCC 10231, Aspergillus fumigatus HIC 6094, Trichophyton rubrum NBRC 9185, Trichophyton mentagrophytes IFM 40996) in broth microdilution MIC assays.

[3] = test system: T3, K. pneumonia; assay: microbe, parasite or virus in culture; design: broth microdilution antibacterial MIC, growth inhibition; conditions: Klebsiella pneumoniae, 24 h
T3 construct: ATCC 10031
Procedure: as §1

[4] = test system: T4, S. aureus; assay: microbe, parasite or virus in culture; design: broth microdilution antibacterial MIC, growth inhibition; conditions: Staphylococcus aureus, 24 h
T4 construct: ATCC 25923
Procedure: as §1

[5] = test system: T5, E. faecium; assay: microbe, parasite or virus in culture; design: broth microdilution antibacterial MIC, growth inhibition; conditions: Enterococcus faecium, 24 h
T5 construct: ATCC 19434
Procedure: as §1

[6] = test system: T6, E. faecalis; assay: microbe, parasite or virus in culture; design: broth microdilution antibacterial MIC, growth inhibition; conditions: Enterococcus faecalis, 24 h
T6 construct: ATCC 19433
Procedure: as §1

[7] = test system: T7, E. coli; assay: microbe, parasite or virus in culture; design: broth microdilution antibacterial MIC, growth inhibition; conditions: Escherichia coli, 24 h
T7 construct: ATCC 25922
Procedure: as §1

[8] = test system: T8, T. mentagrophytes; assay: microbe, parasite or virus in culture; design: broth microdilution antifungal MIC in RPMI 1640, growth inhibition; conditions: Trichophyton mentagrophytes, 96 h
T8 construct: IFM 40996
Procedure: (§2) Potato dextrose agar (PDA) was used to cultivate Candida albicans ATCC 10231. After incubation for 48 h at 28 °C, the yeast cells were harvested by centrifugation and washed twice with sterile distilled water. Aspergillus fumigatus HIC 6094, Trichophyton rubrum NBRC 9185, and Trichophyton mentagrophytes IFM 40,996 were also plated on PDA and incubated for 2 weeks at 28 °C. Spores were harvested and washed twice with sterile distilled water. Stock solutions of 1 and 2 were prepared in DMSO. Each stock solution was diluted with RPMI 1640 broth (Difco, Livonia, MI, USA) to give serial twofold dilutions in the range of 0.06–128 µg/mL. The final DMSO concentration was maintained at 1% by adding DMSO to the broth. Aliquots (10 µL) of the RPMI 1640 broth containing approximately 10^4 cells/mL were mixed with the test compound solutions in each well of a 96-well plate. The plates were incubated for 24 h (for C. albicans), 48 h (for A. fumigatus), and 96 h (for T. rubrum and T. mentagrophytes) at 37 °C. A culture with DMSO (1%) was used as a solvent control, and a culture supplemented with amphotericin B was used as a positive control. The biological activities of mohangic acid H (1) and mohangiol (2) were evaluated in multiple ways. 1 and 2 were evaluated for inhibitory activities against pathogenic bacteria (Staphylococcus aureus ATCC 25923, Enterococcus faecalis ATCC 19433, Enterococcus faecium ATCC 19434, Salmonella enterica ATCC 14028, Escherichia coli ATCC 25922, Klebsiella pneumoniae ATCC 10031) and fungi (Candida albicans ATCC 10231, Aspergillus fumigatus HIC 6094, Trichophyton rubrum NBRC 9185, Trichophyton mentagrophytes IFM 40996) in broth microdilution MIC assays.

[9] = test system: T9, C. albicans; assay: microbe, parasite or virus in culture; design: broth microdilution antifungal MIC in RPMI 1640, growth inhibition; conditions: Candida albicans, 24 h
T9 construct: ATCC 10231
Procedure: as §2

[10] = test system: T10, A. fumigatus; assay: microbe, parasite or virus in culture; design: broth microdilution antifungal MIC in RPMI 1640, growth inhibition; conditions: Aspergillus fumigatus, 48 h
T10 construct: HIC 6094
Procedure: as §2

[11] = test system: T11, T. rubrum; assay: microbe, parasite or virus in culture; design: broth microdilution antifungal MIC in RPMI 1640, growth inhibition; conditions: Trichophyton rubrum, 96 h
T11 construct: NBRC 9185
Procedure: as §2

[12] = read-out: IC50 (μg/mL) (converted)

T1 sequence (Q9P8Q7 whole entry): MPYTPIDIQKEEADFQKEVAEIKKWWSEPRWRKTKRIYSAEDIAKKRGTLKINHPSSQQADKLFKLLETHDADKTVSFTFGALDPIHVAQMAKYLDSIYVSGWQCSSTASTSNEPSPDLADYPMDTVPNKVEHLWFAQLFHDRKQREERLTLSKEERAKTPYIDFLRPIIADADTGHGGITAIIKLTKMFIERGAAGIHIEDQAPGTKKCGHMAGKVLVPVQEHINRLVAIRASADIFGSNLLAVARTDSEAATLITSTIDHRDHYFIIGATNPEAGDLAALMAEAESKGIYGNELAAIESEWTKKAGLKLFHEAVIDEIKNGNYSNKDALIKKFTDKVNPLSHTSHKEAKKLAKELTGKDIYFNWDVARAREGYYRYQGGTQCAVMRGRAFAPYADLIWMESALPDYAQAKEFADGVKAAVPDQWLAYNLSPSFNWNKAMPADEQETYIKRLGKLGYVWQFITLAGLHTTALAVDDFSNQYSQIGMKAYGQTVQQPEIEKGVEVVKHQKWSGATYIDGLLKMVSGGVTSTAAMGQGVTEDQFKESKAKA

| Structure (SMILES) | IC50 [1] [µM] | IC50 [1, 12] [µM] | MIC [2] [µM] | MIC [3] [µM] | MIC [4] [µM] | MIC [5] [µM] | MIC [6] [µM] | MIC [7] [µM] | MIC [8] [µM] | MIC [9] [µM] | MIC [10] [µM] | MIC [11] [µM] |
| --- | --- | --- | --- | --- | --- | --- | --- | --- | --- | --- | --- | --- |
| O=C(O)CC[N+](=O)[O-] [3-nitropropionate, reference compound] | 126 | – | – | – | – | – | – | – | – | – | – | – |
| CC(=O)Nc1ccc(C(=O)C[C@@H](O)[C@H](C)C[C@@H](C)[C@H](O)[C@H](C)/C=C/C=C/C(=O)O)cc1 [compound 1, Mohangic acid H] | – | 49.5 | > 128 | > 128 | > 128 | > 128 | > 128 | > 128 | > 128 | > 128 | > 128 | > 128 |
| C[C@H](O)CC/C=C/C=C/[C@@H](C)[C@@H](O)[C@H](C)C[C@@H](C)[C@H](O)CC(=O)c1ccc(N)cc1 [compound 2, Mohangiol] | – | 50.6 | > 128 | > 128 | > 128 | > 128 | > 128 | > 128 | > 128 | > 128 | > 128 | > 128 |
